Source: patent publication US9067977B2, “Peptides derivatized with A-B-C-D- and their therapeutical use” (Novo Nordisk A/S, priority 2007, dated 2015)
Starred links: 1 amine or outer side, 2 acyl side, 3 side chain; linkers in the order of their positions; H or OH if unused. Residues, ends and D or L forms follow the SMILES beside them. Groups on a side chain read outwards from the residue. *: point of attachment. X1 = O=C(CCCCCCCCCCCCCCCc1nnn[nH]1)NS(=O)(=O)CCCC(=O)*; X2 = O=C(O)CCCCCCCCCCCCCCCCCCC(=O)NCC1CCC(C(=O)*)CC1; C20 diacid = O=C(O)CCCCCCCCCCCCCCCCCCC(=O)*; γGlu = O=C(O)[C@H](CCC(=O)[*:2])N[*:1]; Desaminohistidyl = O=C(CCc1c[nH]cn1)*; 12Ado = NCCCCCCCCCCCC(=O)O; AEEA = NCCOCCOCC(=O)O; Inp = O=C(O)C1CCNCC1

Target: human serum albumin (HSA) (Homo sapiens, UniProt P02768)
Sequence (P02768 25-609): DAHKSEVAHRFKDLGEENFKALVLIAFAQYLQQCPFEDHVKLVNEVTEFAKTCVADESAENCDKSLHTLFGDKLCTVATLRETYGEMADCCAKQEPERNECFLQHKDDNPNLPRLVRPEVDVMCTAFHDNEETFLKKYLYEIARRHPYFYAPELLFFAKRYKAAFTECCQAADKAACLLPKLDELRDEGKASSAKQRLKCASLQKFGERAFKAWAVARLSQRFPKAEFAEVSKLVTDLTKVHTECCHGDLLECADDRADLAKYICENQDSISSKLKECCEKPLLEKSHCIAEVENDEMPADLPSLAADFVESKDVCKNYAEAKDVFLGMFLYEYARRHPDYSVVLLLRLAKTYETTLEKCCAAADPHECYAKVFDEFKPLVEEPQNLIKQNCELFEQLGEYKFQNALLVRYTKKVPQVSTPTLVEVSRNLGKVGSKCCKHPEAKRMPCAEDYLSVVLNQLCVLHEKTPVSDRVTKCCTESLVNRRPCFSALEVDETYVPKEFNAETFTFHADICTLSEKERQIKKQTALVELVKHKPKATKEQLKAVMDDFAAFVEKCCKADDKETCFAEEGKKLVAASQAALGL
Assay: Albumin binding affinity, competition scintillation proximity assay
Details: for EC50 at 20 h: human, biotinylated human serum albumin on streptavidin-SPA beads, pH 7.4
Method: Streptavidin-SPA beads (GE Healthcare RPNQ0009) were incubated with biotinylated HSA for 5 hours. The beads were washed with buffer to remove unbound HSA. […] After 20 hours of gentle rocking at room temperature the plates were centrifuged and counted on a TopCounter.

SMILES	EC50 at 20 h	EC50
CC[C@H](C)[C@H](NC(=O)[C@H](Cc1ccccc1)NC(=O)[C@H](CCC(=O)O)NC(=O)[C@H](CCCCNC(=O)COCCOCCNC(=O)CC[C@H](NC(=O)CC[C@H](NC(=O)CCCCCCCCCCCNC(=O)CCCS(=O)(=O)NC(=O)CCCCCCCCCCCCCCCc1nnn[nH]1)C(=O)O)C(=O)O)NC(=O)[C@H](C)NC(=O)[C@H](C)NC(=O)[C@H](CCC(N)=O)NC(=O)CNC(=O)[C@H](CCC(=O)O)NC(=O)[C@H](CC(C)C)NC(=O)[C@H](Cc1ccc(O)cc1)NC(=O)[C@H](CO)NC(=O)[C@H](CO)NC(=O)[C@@H](NC(=O)[C@H](CC(=O)O)NC(=O)[C@H](CO)NC(=O)[C@@H](NC(=O)[C@H](Cc1ccccc1)NC(=O)[C@@H](NC(=O)CNC(=O)[C@H](CCC(=O)O)NC(=O)C(C)(C)NC(=O)[C@@H](N)Cc1c[nH]cn1)[C@@H](C)O)[C@@H](C)O)C(C)C)C(=O)N[C@@H](C)C(=O)N[C@@H](Cc1c[nH]c2ccccc12)C(=O)N[C@@H](CC(C)C)C(=O)N[C@H](C(=O)N[C@@H](CCCNC(=N)N)C(=O)O)C(C)C [Example 37, N-epsilon26-[2-(2-{2-[(S)-4-Carboxy-4-((S)-4-carboxy-4-{12-[4-(16-(1H-tetrazol-5-yl)hexadecanoylsulfamoyl)butyrylamino]-dodecanoylamino}butyrylamino)butyrylamino]ethoxy}ethoxy)acetyl][Aib8,Arg34]GLP-1-(7-34)]	1 to 100 nM	–
CC[C@H](C)[C@H](NC(=O)[C@H](Cc1ccccc1)NC(=O)[C@H](CCC(=O)O)NC(=O)[C@H](CCCNC(=N)N)NC(=O)[C@H](C)NC(=O)[C@H](C)NC(=O)[C@H](CCC(N)=O)NC(=O)[C@H](CCC(=O)O)NC(=O)[C@H](CCC(=O)O)NC(=O)[C@H](CC(C)C)NC(=O)[C@H](Cc1ccc(O)cc1)NC(=O)[C@H](CO)NC(=O)[C@H](CO)NC(=O)[C@@H](NC(=O)[C@H](CC(=O)O)NC(=O)[C@H](CO)NC(=O)[C@@H](NC(=O)[C@H](Cc1ccccc1)NC(=O)[C@@H](NC(=O)CNC(=O)[C@H](CCC(=O)O)NC(=O)[C@H](C)NC(=O)CCc1c[nH]cn1)[C@@H](C)O)[C@@H](C)O)C(C)C)C(=O)N[C@@H](C)C(=O)N[C@@H](Cc1c[nH]c2ccccc12)C(=O)N[C@@H](CC(C)C)C(=O)N[C@H](C(=O)N[C@@H](CCCNC(=N)N)C(=O)NCC(=O)N[C@@H](CCCNC(=N)N)C(=O)NCC(=O)N[C@@H](CCCCNC(=O)COCCOCCNC(=O)COCCOCCNC(=O)CC[C@H](NC(=O)C1CCN(C(=O)CCCCCCCCCCCCCCCCCCC(=O)O)CC1)C(=O)O)C(=O)O)C(C)C [Example 7, [DesaminoHis7,Glu22,Arg26,Arg34]GLP-1-(7-37)-Lys(2-{2-[2-(2-{2-[2-((S)-4-Carboxy-4-{[1-(19-carboxynonadecanoyl)piperidine-4-carbonyl]amino}butyrylamino)ethoxy]ethoxy}acetylamino)ethoxy]ethoxy}acetyl)] (Desaminohistidyl-AEGTFTSDVSSYLEEQAAREFIAWLVRGRGK([AEEA-AEEA-γGlu-Inp-C20 diacid])-OH)	–	300 to 800 nM
CC[C@H](C)[C@H](NC(=O)[C@H](Cc1ccccc1)NC(=O)[C@H](CCC(=O)O)NC(=O)[C@H](CCCNC(=N)N)NC(=O)[C@H](C)NC(=O)[C@H](C)NC(=O)[C@H](CCC(N)=O)NC(=O)[C@H](CCC(=O)O)NC(=O)[C@H](CCC(=O)O)NC(=O)[C@H](CC(C)C)NC(=O)[C@H](Cc1ccc(O)cc1)NC(=O)[C@H](CO)NC(=O)[C@H](CO)NC(=O)[C@@H](NC(=O)[C@H](CC(=O)O)NC(=O)[C@H](CO)NC(=O)[C@@H](NC(=O)[C@H](Cc1ccccc1)NC(=O)[C@@H](NC(=O)CNC(=O)[C@H](CCC(=O)O)NC(=O)[C@H](C)NC(=O)CCc1c[nH]cn1)[C@@H](C)O)[C@@H](C)O)C(C)C)C(=O)N[C@@H](C)C(=O)N[C@@H](Cc1c[nH]c2ccccc12)C(=O)N[C@@H](CC(C)C)C(=O)N[C@H](C(=O)N[C@@H](CCCNC(=N)N)C(=O)NCC(=O)N[C@@H](CCCNC(=N)N)C(=O)NCC(=O)N[C@@H](CCCCNC(=O)COCCOCCNC(=O)COCCOCCNC(=O)CC[C@H](NC(=O)C1CCC(CNC(=O)CCCCCCCCCCCCCCCCCCC(=O)O)CC1)C(=O)O)C(=O)O)C(C)C (stereo partly drawn) [Example 56, [DesaminoHis7,Glu22,Arg26,34]-GLP-1 (7-37)-Lys-[2-(2-{2-[2-(2-{2-[4-Carboxy-4-({4-[(19-carboxynonadecanoylamino)methyl]cyclohexanecarbonyl}amino)butyrylamino]ethoxy}ethoxy)acetylamino]ethoxy}ethoxy)acetyl] peptide] (Desaminohistidyl-AEGTFTSDVSSYLEEQAAREFIAWLVRGRGK([AEEA-AEEA-γGlu-X2])-OH)	–	150 to 300 nM

Continued, values first:

EC50 at 20 h	EC50	SMILES
1 to 100 nM	–	CC[C@H](C)[C@H](NC(=O)[C@H](Cc1ccccc1)NC(=O)[C@H](CCC(=O)O)NC(=O)[C@H](CCCNC(=N)N)NC(=O)[C@H](C)NC(=O)[C@H](C)NC(=O)[C@H](CCC(N)=O)NC(=O)CNC(=O)[C@H](CCC(=O)O)NC(=O)[C@H](CC(C)C)NC(=O)[C@H](Cc1ccc(O)cc1)NC(=O)[C@H](CO)NC(=O)[C@H](CO)NC(=O)[C@@H](NC(=O)[C@H](CC(=O)O)NC(=O)[C@H](CO)NC(=O)[C@@H](NC(=O)[C@H](Cc1ccccc1)NC(=O)[C@@H](NC(=O)CNC(=O)[C@H](CCC(=O)O)NC(=O)[C@H](C)NC(=O)CCc1c[nH]cn1)[C@@H](C)O)[C@@H](C)O)C(C)C)C(=O)N[C@@H](C)C(=O)N[C@@H](Cc1c[nH]c2ccccc12)C(=O)N[C@@H](CC(C)C)C(=O)N[C@H](C(=O)N[C@@H](CCCNC(=N)N)C(=O)NCC(=O)N[C@@H](CCCNC(=N)N)C(=O)N[C@@H](CCCCNC(=O)COCCOCCNC(=O)CC[C@H](NC(=O)CC[C@H](NC(=O)CCCCCCCCCCCNC(=O)CCCS(=O)(=O)NC(=O)CCCCCCCCCCCCCCCc1nnn[nH]1)C(=O)O)C(=O)O)C(=O)O)C(C)C [Example 65, N-epsilon37-[2-(2-{2-[(S)-4-Carboxy-4-((S)-4-carboxy-4-{12-[4-(16-(1H-tetrazol-5-yl)hexadecanoylsulfamoyl)butyrylamino]dodecanoylamino}butyrylamino)butyrylamino]ethoxy}ethoxy)acetyl][DesaminoHis7,Arg26,Arg34,Lys37]GLP-1-(7-37)]
–	1 to 100 nM	CC[C@H](C)[C@H](NC(=O)[C@H](Cc1ccccc1)NC(=O)[C@H](CCC(=O)O)NC(=O)[C@H](CCCNC(=N)N)NC(=O)[C@H](C)NC(=O)[C@H](C)NC(=O)[C@H](CCC(N)=O)NC(=O)[C@H](CCC(=O)O)NC(=O)[C@H](CCC(=O)O)NC(=O)[C@H](CC(C)C)NC(=O)[C@H](Cc1ccc(O)cc1)NC(=O)[C@H](CO)NC(=O)[C@H](CO)NC(=O)[C@@H](NC(=O)[C@H](CC(=O)O)NC(=O)[C@H](CO)NC(=O)[C@@H](NC(=O)[C@H](Cc1ccccc1)NC(=O)[C@@H](NC(=O)CNC(=O)[C@H](CCC(=O)O)NC(=O)[C@H](C)NC(=O)CCc1c[nH]cn1)[C@@H](C)O)[C@@H](C)O)C(C)C)C(=O)N[C@@H](C)C(=O)N[C@@H](Cc1c[nH]c2ccccc12)C(=O)N[C@@H](CC(C)C)C(=O)N[C@H](C(=O)N[C@@H](CCCNC(=N)N)C(=O)NCC(=O)N[C@@H](CCCNC(=N)N)C(=O)N[C@@H](CCCCNC(=O)COCCOCCNC(=O)CC[C@H](NC(=O)CC[C@H](NC(=O)CCCCCCCCCCCNC(=O)CCCS(=O)(=O)NC(=O)CCCCCCCCCCCCCCCc1nnn(C(C)(C)C)n1)C(=O)O)C(=O)O)C(=O)O)C(C)C [Example 64, N-epsilon37-{2-[2-(2-{(S)-4-[(S)-4-(12-{4-[16-(2-tert-Butyl-2H-tetrazol-5-yl)-hexadecanoylsulfamoyl]butyrylamino}dodecanoylamino)-4-carboxybutyrylamino]-4-carboxybutyrylamino}ethoxy)ethoxy]acetyl}[DesaminoHis7,Glu22,Arg26,Arg34,Lys37] GLP-1 (7-37)]
–	1 to 100 nM	CC[C@H](C)[C@H](NC(=O)[C@H](Cc1ccccc1)NC(=O)[C@H](CCC(=O)O)NC(=O)[C@H](CCCNC(=N)N)NC(=O)[C@H](C)NC(=O)[C@H](C)NC(=O)[C@H](CCC(N)=O)NC(=O)[C@H](CCC(=O)O)NC(=O)[C@H](CCC(=O)O)NC(=O)[C@H](CC(C)C)NC(=O)[C@H](Cc1ccc(O)cc1)NC(=O)[C@H](CO)NC(=O)[C@H](CO)NC(=O)[C@@H](NC(=O)[C@H](CC(=O)O)NC(=O)[C@H](CO)NC(=O)[C@@H](NC(=O)[C@H](Cc1ccccc1)NC(=O)[C@@H](NC(=O)CNC(=O)[C@H](CCC(=O)O)NC(=O)[C@H](C)NC(=O)CCc1c[nH]cn1)[C@@H](C)O)[C@@H](C)O)C(C)C)C(=O)N[C@@H](C)C(=O)N[C@@H](Cc1c[nH]c2ccccc12)C(=O)N[C@@H](CC(C)C)C(=O)N[C@H](C(=O)N[C@@H](CCCNC(=N)N)C(=O)NCC(=O)N[C@@H](CCCNC(=N)N)C(=O)NCC(=O)N[C@@H](CCCCNC(=O)COCCOCCNC(=O)CC[C@H](NC(=O)CC[C@H](NC(=O)CCCCCCCCCCCNC(=O)CCCS(=O)(=O)NC(=O)CCCCCCCCCCCCCCCc1nnn[nH]1)C(=O)O)C(=O)O)C(N)=O)C(C)C [Example 67, [ImPr^7,Arg^26,34,Glu^22]GLP-1-(7-37)Lys[2-(2-[2-((S)-4-((S)-4-(12-[4-(16-1H-tetrazol-5-ylhexadecanoylsulfamoyl)butyrylamino]dodecanoylamino)-4-carboxybutyrylamino)-4-carboxybutyrylamino)ethoxy]ethoxy)acetyl]-amid] (Desaminohistidyl-AEGTFTSDVSSYLEEQAAREFIAWLVRGRGK([AEEA-γGlu-γGlu-12Ado-X1])-NH2)
